In the supplement of paper PMC11208160:

assay: recombinant UMI read abundance after kanamycin selection (control-corrected) (log10(CPM+1)); higher = more efficient recombination; extreme values may be limits of the assay; sequences stand for … in AGTGCAGAGAAAATCGGCCAGTTTTCTCTGCCTGCAGTCCGCATGCCGTGGGACCCCTTGGGTTCTAACCTGTTGCCTAGATTTATGCAGCGGACTGCCTTTCTCCCAAAGTGATAAACCGG…AGGTTGGTTTCACT; site = the 11-nt donor
In short: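 Values are reported as log10(CPM+1), obtained by converting sequencing counts to CPM, averaging replicates and scaling by control-derived factors. The counts came from recombinant UMIs amplified by PCR across the donor–target junction. These UMIs came from a pooled Escherichia coli screen of donor and donor-binding-loop pairs for the IS621 bridge recombinase, plated with IPTG (0.07 mM) plus kanamycin or left unselected, in two replicates each.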
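Note: IS621 bridge recombinase in Escherichia coli cells against a fixed T5 target plasmid.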

Sequence	recombinant UMI read abundance (log10)
CGCATATCATGGACCGGTTTTCCCGGTAATCCGTATTTGTC (site CGCATATCTGA)	1.86
CGCATATCATGGACCGGTTTTCCCGGTAATCCGTATTTGTC (site CTCATATCTGA)	0.436
CGCATGTCATGGACCGGTTTTCCCGGTAATCCGTATTTGTT (site CGCATGTCTAA)	2.52
CGCCCATCATGGACCGGTTTTCCCGGTAATCCGTATTTGCT (site CGATCATCTAG)	0.57
CGCCCATCATGGACCGGTTTTCCCGGTAATCCGTATTTGCT (site CGCCCATCTAG)	2.54
CGCCCTACATGGACCGGTTTTCCCGGTAATCCGTATTTGCT (site CGCCATACTAG)	0
CGCCCTACATGGACCGGTTTTCCCGGTAATCCGTATTTGCT (site CGCCCTACTAG)	1.28
CGCCCTACATGGACCGGTTTTCCCGGTAATCCGTATTTGCT (site CGCCGTACTAG)	0.0214
CGCCCTACATGGACCGGTTTTCCCGGTAATCCGTATTTGCT (site CGCCTTACTAG)	0
CGCCCTCCATGGACCGGTTTTCCCGGTAATCCGTATTTGAT (site CGCCCTCCTAT)	0.51
CGCCGTACATGGACCGGTTTTCCCGGTAATCCGTATTTGCG (site CGCCGTACTAG)	0
CGCCGTACATGGACCGGTTTTCCCGGTAATCCGTATTTGCG (site CGCCGTACTCG)	1.13
CGCCGTACATGGACCGGTTTTCCCGGTAATCCGTATTTGCG (site CGCCGTACTGG)	0
CGCCGTACATGGACCGGTTTTCCCGGTAATCCGTATTTGCG (site CGCCGTACTTG)	0.00693
CGCCTAGCATGGACCGGTTTTCCCGGTAATCCGTATTTGTT (site AGCCTAGCTAA)	0.00606
CGCCTAGCATGGACCGGTTTTCCCGGTAATCCGTATTTGTT (site CGCCTAGCTAA)	0

Sequence	recombinant UMI read abundance (log10)
CGCCTAGCATGGACCGGTTTTCCCGGTAATCCGTATTTGTT (site GGCCTAGCTAA)	0.00975
CGCCTAGCATGGACCGGTTTTCCCGGTAATCCGTATTTGTT (site TGCCTAGCTAA)	0.00877
CGCGATTCATGGACCGGTTTTCCCGGTAATCCGTATTTGGA (site CGCGATTCTTC)	2.31
CGCGCGCCATGGACCGGTTTTCCCGGTAATCCGTATTTGTT (site CGCGCGCCTAA)	0.0124
CGCGGCCCATGGACCGGTTTTCCCGGTAATCCGTATTTGTT (site CACGGCCCTAA)	0.167
CGCGGCCCATGGACCGGTTTTCCCGGTAATCCGTATTTGTT (site CCCGGCCCTAA)	0.00728
CGCGGCCCATGGACCGGTTTTCCCGGTAATCCGTATTTGTT (site CGCGGCCCTAA)	0.202
CGCGGCCCATGGACCGGTTTTCCCGGTAATCCGTATTTGTT (site CTCGGCCCTAA)	0.00821
CGCGGCTCATGGACCGGTTTTCCCGGTAATCCGTATTTGGC (site CGCGGCTCTGC)	2.33
CGCGGTCCATGGACCGGTTTTCCCGGTAATCCGTATTTGCA (site CACGGTCCTTG)	0
CGCGGTCCATGGACCGGTTTTCCCGGTAATCCGTATTTGCA (site CCCGGTCCTTG)	0.3
CGCGGTCCATGGACCGGTTTTCCCGGTAATCCGTATTTGCA (site CGCGGTCCTTG)	1.12
CGCGGTCCATGGACCGGTTTTCCCGGTAATCCGTATTTGCA (site CTCGGTCCTTG)	0
CGCTAGGCATGGACCGGTTTTCCCGGTAATCCGTATTTGAC (site CGCTAGGCTGT)	1.08
CGCTCATCATGGACCGGTTTTCCCGGTAATCCGTATTTGGT (site CGATCATCTAG)	0.393
CGCTCATCATGGACCGGTTTTCCCGGTAATCCGTATTTGGT (site CGCTCATCTAC)	1.17
